Measured values reported in the NIST ThermoML archive (doi:10.1021/acs.jced.8b00452).
Where “and” joins values, the source holds several entries; their conditions need not be identical. Equal values may be shown once.

Settings: isochoric method

C=CC(F)(F)F [1,1,1-trifluoro-2-propene]
Settings	mass density [kg/m3]
328 K, 2263.6 kPa, Liquid	899.4
330 K, 1111.5 kPa, Gas	50
330 K, 3005.2 kPa, Liquid	899.2
333 K, 4120.1 kPa, Liquid	899
335 K, 4863.3 kPa, Liquid	898.9
338 K, 5981.5 kPa, Liquid	898.8
340 K, 1167.6 kPa, Gas	49.9
340 K, 6726 kPa, Liquid	898.7
348 K, 2175.9 kPa, Liquid	796.5
349 K, 2433.4 kPa, Liquid	796.4
350 K, 1222.4 kPa, Gas	49.9
350 K, 2692.4 kPa, Liquid	796.4
351 K, 2951.1 kPa, Liquid	796.4
352 K, 3211.8 kPa, Liquid	796.4
353 K, 3472 kPa, Liquid	796.3
354 K, 3732.3 kPa, Liquid	796.3
355 K, 2036.4 kPa, Gas	99.8
355 K, 3993.5 kPa, Liquid	796.3
356 K, 4255.7 kPa, Liquid	796.3
357 K, 4517.5 kPa, Liquid	796.2
358 K, 4781.3 kPa, Liquid	796.2
360 K, 1276.2 kPa, Gas	49.9
360 K, 2101.2 kPa, Gas	99.8
360 K, 5309.1 kPa, Liquid	796.2
362 K, 5836.4 kPa, Liquid	796.1
364 K, 2872 kPa, Fluid (supercritical or subcritical phases)	699.8
364 K, 6364.7 kPa, Liquid	796.1
366 K, 3226.1 kPa, Fluid (supercritical or subcritical phases)	699.8
366 K, 6895.5 kPa, Liquid	796
368 K, 3583.4 kPa, Fluid (supercritical or subcritical phases)	699.7
370 K, 1329.2 kPa, Gas	49.9
370 K, 2227.8 kPa, Gas	99.8
370 K, 3943.7 kPa, Fluid (supercritical or subcritical phases)	699.7
372 K, 4306.9 kPa, Fluid (supercritical or subcritical phases)	699.7
374 K, 4672.5 kPa, Fluid (supercritical or subcritical phases)	699.6
376 K, 5040.5 kPa, Fluid (supercritical or subcritical phases)	699.6
378 K, 5410 kPa, Fluid (supercritical or subcritical phases)	699.5
379 K, 3659.3 kPa, Gas	408.6
380 K, 1381.9 kPa, Gas	49.9
380 K, 2351.3 kPa, Gas	99.8
380 K, 3350.9 kPa, Gas	199.9
380 K, 3727.7 kPa, Gas	408.6
380 K, 5781.1 kPa, Fluid (supercritical or subcritical phases)	699.5
382 K, 6153.3 kPa, Fluid (supercritical or subcritical phases)	699.5
384 K, 6527.3 kPa, Fluid (supercritical or subcritical phases)	699.4
385 K, 3499.4 kPa, Gas	199.9
385 K, 4070.4 kPa, Gas	408.5
386 K, 6902.3 kPa, Fluid (supercritical or subcritical phases)	699.4
390 K, 1433.6 kPa, Gas	49.9
390 K, 2472.5 kPa, Gas	99.7
390 K, 3645.5 kPa, Gas	199.8
390 K, 4415.7 kPa, Gas	408.4
395 K, 3789.8 kPa, Gas	199.8
395 K, 4762.2 kPa, Gas	408.3
400 K, 1484.4 kPa, Gas	49.8
400 K, 2591.1 kPa, Gas	99.7
400 K, 3931.9 kPa, Gas	199.7
400 K, 5109.3 kPa, Gas	408.2
405 K, 4073 kPa, Gas	199.7
405 K, 5458.7 kPa, Gas	408.1
410 K, 1534.9 kPa, Gas	49.8
410 K, 2708 kPa, Gas	99.6
410 K, 4212.5 kPa, Gas	199.6
410 K, 5806.1 kPa, Gas	407.9
415 K, 4350.8 kPa, Gas	199.5
415 K, 6157.7 kPa, Gas	407.7
420 K, 1584.7 kPa, Gas	49.7
420 K, 2823 kPa, Gas	99.5
420 K, 4487.8 kPa, Gas	199.4
420 K, 6507.1 kPa, Gas	407.5
425 K, 4623.8 kPa, Gas	199.2
425 K, 6857.2 kPa, Gas	407.2
430 K, 1633.5 kPa, Gas	49.7
430 K, 2936 kPa, Gas	99.3
430 K, 4758.7 kPa, Gas	199.1

mass density
Settings	Gas	Liquid
360.73 K	–	723.7 kg/m3
366.5 K	182.7 kg/m3	–
369.78 K	205.8 kg/m3	–
369.83 K	–	644 kg/m3
371.67 K	231.2 kg/m3	–
371.85 K	–	616.3 kg/m3
374.16 K	–	571.5 kg/m3
374.31 K	255.3 kg/m3	–
375.35 K	287.6 kg/m3	–
376.38 K	–	508.8 kg/m3
376.41 K	323.1 kg/m3	–
376.87 K	–	451.6 kg/m3
376.93 K	408.8 kg/m3 and 414.2 kg/m3	414.2 kg/m3
